Experimental data: patent publication US7803760B2, “Methods of inducing ovulation” (Merck Serono SA, priority 2000, dated 2010)

Columns and labels:
[1] = system: rat ovarian granulosa cells; test: Rat ovarian granulosa cell cAMP levels in vitro (cAMP RIA of conditioned media); format: cell-based; settings: 25 micromolar compound with sub-effective (0.1 pM) gonadotropin, 48 hrs, FIG. 2
Experimental: Ovaries were removed from immature 25 day old, hypophysectomized, diethylstilbesterol treated Sprague-Dawley rats. The ovaries were repeatedly punctured with 27 gauge needles to liberate granulosa cells from the follicles. Cells were washed and re-suspended in McCoys SA media+0.1% BSA+2 μM androstenedione. Viable cells in number of 100,000 were loaded into 6-well tissue culture dishes in a 1.0 ml volume (with Compound 1 and Compound 2 at a concentration of 25 micromolar, either alone or in conjunction with a low, 0.1 pM dose of gonadotropin). Plates were incubated in a 37° C. incubator, 100% humidity, 5.0% CO2 for 48 hrs. Conditioned media were assayed in a cAMP specific radioimmunoassay (RIA). Results are expressed as mean plus or minus standard deviations.

immature female rats [2] = test: In vivo ovulation model: FSH-matured follicles in immature rats, oocytes in oviduct counted 18 hours after administration; parameters: species or system rat; settings: FSH pretreated rats
Source text: The role of FSH in any ovulation induction regimen is for promoting follicular development and maturation, not ovulation induction.
All injections were subcutaneous. Results are expressed as mean plus or minus standard deviations. […] The effects of Compound 1, a known PDE inhibitor, are shown.
Data represent average number of oocytes in oviducts of all rats in each group and frequency of ovulating rats. […] Results are expressed as mean plus or minus standard deviations.
Data represent average number of oocytes in oviducts of all rats in each group and frequency of ovulating rats. Results are expressed as mean plus or minus standard deviations.
(§1) Following FSH induced follicular maturation (2.16 IU/rat/injection; bid×2 days) Compound 2 was either injected subcutaneously (subcutis) or administered by oral gavage. Ovulation was determined 18 hours after Compound 2 administration by counting oocytes in oviduct. Data represent average number of oocytes in oviducts of all rats in each group and frequency of ovulating rats. Results are expressed as mean plus or minus standard deviations.
as §1, with “days) […] was either” for “days) Compound 2 was either”

immature rats = test: Ovulation and fertility in FSH/PMSG pretreated immature rats; format: in vivo, rat; settings: single subcutaneous injection, FIG. 10
Experimental: Follicular maturation was induced in immature rats with FSH (4.33 IU/rat/injection; bid×2 days) and Pregnant Mare's Serum Gonadotropin (PMSG) (1.5 IU/rat/injection; bid X 2 days). […] FSH and PMSG induced rats were then treated with either Compound 2 (12 rats) or vehicle (12 rats) by subcutaneous administration. In one cohort of rats (6 rats per treatment), ovulation was determined 18 hours after Compound 2 or vehicle administration by counting oocytes in oviduct. To assess fertility, another cohort of rats (6 rats per treatment) were individually placed overnight in a cage together with a single adult male rat of proven fertility. The next day, male rats were removed and the females were caged together by group until the day of parturition. The number of live full-term pups observed at the time of parturition was recorded. […] Results for both ovulation and live pups are expressed as mean plus or minus standard deviations.

immature female rats [3] = test: Follicle maturation in vivo: co-administration with sub-optimal FSH, then ovulatory hCG, oocytes in oviduct counted; parameters: species or system rat; settings: FIG. 3
Experimental: Mature ovarian follicles generated in immature female rats by treatment with a sub-optimal dose of FSH (1.08 IU/rat/injection; bid×3 days) with and without co-administration of Compound 1 (0.1, 1, 10, and 50 mg/kg/injection: bid×3 days). […] The PDE inhibitors were given in conjunction with sub-optimal doses of FSH.
All injections were subcutaneously administered. […] Results are expressed as mean plus or minus standard deviations. […] As also noted in FIG. 3, a PDE inhibitor (Compound 1) inhibited (rather than stimulated) both ovulation administered at 50 mg/kg.

[4] = oral gavage, compound alone without hCG
[5] = subcutaneous, compound alone without hCG
[6] = single subcutaneous injection co-administered with sub-effective dose of hCG

Row | SMILES | cAMP levels [1] | ovulation (oocytes in oviduct) (immature female rats [2]; [4]) | ovulation (oocytes in oviduct) (immature female rats [2]; [5]) | number of live full-term pups at parturition (immature rats; FSH/PMSG pretreated rats mated overnight) | ovulation (oocytes in oviduct) (immature rats; FSH/PMSG pretreated rats, 18 hours) | ovulation (oocytes in oviduct) (immature female rats [3]; 50 mg/kg/injection bid x 3 days s.c. with sub-optimal FSH (1.08 IU), ovulatory hCG 20 IU) | ability of a sub-optimal dose of FSH to prepare follicles to ovulate (immature female rats [3]; increasing doses 0.1, 1, 10, 50 mg/kg/injection bid x 3 days s.c.) | ovulation (oocytes in oviduct) (immature female rats [2]; [6])
1 | COc1ccc(C(=O)Nc2c(Cl)cncc2Cl)cc1OC1CCCC1 [Compound 2, 3-(Cyclopentyloxy)-N-(3,5-dichloropyridin-4-yl)-4-methoxybenzamide] | significant increase in cAMP levels | induction of ovulation | induction of ovulation | increased number of live pups | induction of ovulation | – | – | –
2 | CCOc1cc2cc(CO)c(CO)c(-c3ccnc(-n4nc(-c5cccnc5)c5ccccc5c4=O)c3)c2cc1OCC.Cl [Compound 3, 2-(4-(6,7-Diethoxy-2,3-bis(hydroxymethyl)naphthalen-1-yl)pyridin-2-yl)-4-(3-pyridyl)pthalazin-1(2H)-one hydrochloride] | – | induction of ovulation | induction of ovulation | – | – | – | – | –
3 | COc1ccc([C@]2(C#N)CC[C@@H](C(=O)O)CC2)cc1OC1CCCC1 [Compound 1, Cis-4-cyano-4-(3-(cyclopentyloxy)-4-methoxyphenyl)cyclohexane-1-carboxylic acid] | significant increase in cAMP levels | – | induction of ovulation | – | – | inhibited | failed to enhance | induction of ovulation
4 | Clc1nc2c(N3CCCC3)nc(N3CCNCC3)nc2nc1NCc1ccccc1 [Compound 4, 7-Benzylamino-6-chloro-2-piperazino-4-pyrrolidinopteridine] | – | – | little or no ovulation | – | – | – | – | induction of ovulation
